Data: PMC4474554 (PLoS ONE, 2015)

System: EGFR kinases (all the variants tested)
Assay: In vitro binding assay (ATP beads), all variant EGFR kinases
Details: at a concentration of 1000 μM

Nc1ncnc2c1ncn2[C@@H]1O[C@H](COP(=O)(O)OP(=O)(O)OP(=O)(O)O)[C@@H](O)[C@H]1O [ATP]
binding of exogenous ATP to EGFR kinases: weakly bound
